Experimental data from patent publication US20150344457A1, “METHODS OF INHIBITING PRMT5” (EPIZYME, INC., priority 2012, published 2015).
pIC50: −log10 of the molar value. Like-named read-outs stand apart in the source and are kept apart here.

Biological target: T1, PRMT5/MEP50 (Homo sapiens, UniProt O14744)
T1 construct: Expressed full-length human Flag-PRMT5/6His-MeP50 protein complex was purified; made in house; host or cells: Spodoptera frugiperda (SF9) insect cells, baculovirus (pDEST8)
Assay: PRMT5 Biochemical Assay (PRMT5/MEP50 enzyme assay on peptide substrate, 3H-SAM Flashplate)
Conditions: read-out: Biochemical IC50
Excerpt: S-adenosylmethionine (SAM), S-adenosylhomocysteine (SAH), bicine, KCl, Tween20, dimethylsulfoxide (DMSO), bovine skin gelatin (BSG), and Tris(2-carboxyethyl)phosphine hydrochloride solution (TCEP) were purchased from Sigma-Aldrich at the highest level of purity possible. ^3H-SAM was purchase from American Radiolabeled Chemicals with a specific activity of 80 Ci/mmol 384-well streptavidin Flashplates were purchased from PerkinElmer.
Peptide representative of human histone H4 residues 1-15 was synthesized with a C-terminal linker-affinity tag motif and a C-terminal amide cap by 21st Century Biochemicals. […] The sequence was Ac-[…][K-Biot]-amide (SEQ ID NO.:3).
Full-length human MEP50 (NM_024102) clone was amplified from a human testis cDNA library incorporating a 5′ sequence encoding a 6-histidine tag (MHHHHHH) (SEQ ID NO.:5) fused directly to Arg 2 of MEP50. The amplified genes were sublconed into pENTR/D/TEV (Life Technologies) and subsequently transferred by Gateway™ attL×attR recombination to pDEST8 baculvirus expression vector (Life Technologies).
Recombinant baculovirus and Baculovirus-Infected Insect Cells (BIIC) were generated according to Bac-to-Bac kit instructions (Life Technologies) and Wasilko, 2006, respectively. Protein over-expression was accomplished by infecting exponentially growing Spodoptera frugiperda (SF9) cell culture at 1.2×10^6 cell/ml with a 5000 fold dilution of BIIC stock. Infections were carried out at 27° C. for 72 hours, harvested by centrifugation, and stored at −80° C. for purification.
Flag-PRMT5/6His-MeP50 was eluted with 300 mM Imidazole in the same buffer. […] Reference: Wasilko, D. J. and S. E. Lee: “TIPS: titerless infected-cells preservation and scale-up” Bioprocess J., 5 (2006), pp. 29-32.
General Procedure for PRMT5/MEP50 Enzyme Assays on Peptide Substrates.
The assays were all performed in a buffer consisting of 20 mM Bicine (pH=7.6), 1 mM TCEP, 0.005% BSG, and 0.002% Tween20, prepared on the day of use. Compounds in 100% DMSO (1 ul) were spotted into a polypropylene 384-well V-bottom plates (Greiner) using a Platemate Plus outfitted with a 384-channel head (Thermo Scientific). DMSO (1 ul) was added to Columns 11, 12, 23, 24, rows A-H for the maximum signal control and 1 ul of SAH, a known product and inhibitor of PRMT5/MEP50, was added to columns 11, 12, 23, 24, rows I-P for the minimum signal control. A cocktail (40 ul) containing the PRMT5/MEP50 enzyme and the peptide was added by Multidrop Combi (Thermo-Fisher). The compounds were allowed to incubate with PRMT5/MEP50 for 30 min at 25 degrees Celsius, then a cocktail (10 ul) containing ^3H-SAM was added to initiate the reaction (final volume=51 ul). The final concentrations of the components were as follows: PRMT5/MEP50 was 4 nM, ^3H-SAM was 75 nM, peptide was 40 nM, SAH in the minimum signal control wells was 100 uM, and the DMSO concentration was 1%. The assays were stopped by the addition of non-radioactive SAM (10 ul) to a final concentration of 600 uM, which dilutes the ^3H-SAM to a level where its incorporation into the peptide substrate is no longer detectable. 50 ul of the reaction in the 384-well polypropylene plate was then transferred to a 384-well Flashplate and the biotinylated peptides were allowed to bind to the streptavidin surface for at least 1 hour before being washed three times with 0.1% Tween20 in a Biotek ELx405 plate washer. The plates were then read in a PerkinElmer TopCount plate reader to measure the quantity of ^3H-labeled peptide bound to the Flashplate surface, measured as disintegrations per minute (dpm) or alternatively, referred to as counts per minute (cpm).
where dpm=disintegrations per minute, cmpd=signal in assay well, and min and max are the respective minimum and maximum signal controls.
where top and bottom are the normally allowed to float, but may be fixed at 100 or 0 respectively in a 3-parameter fit.

[1] = Table B-2, PRMT5/MEP50 4 nM, 3H-SAM 75 nM, peptide 40 nM
[2] = PRMT5 biochemical assay, Table C-2

T1 sequence (O14744 with tags, fused parts or gaps): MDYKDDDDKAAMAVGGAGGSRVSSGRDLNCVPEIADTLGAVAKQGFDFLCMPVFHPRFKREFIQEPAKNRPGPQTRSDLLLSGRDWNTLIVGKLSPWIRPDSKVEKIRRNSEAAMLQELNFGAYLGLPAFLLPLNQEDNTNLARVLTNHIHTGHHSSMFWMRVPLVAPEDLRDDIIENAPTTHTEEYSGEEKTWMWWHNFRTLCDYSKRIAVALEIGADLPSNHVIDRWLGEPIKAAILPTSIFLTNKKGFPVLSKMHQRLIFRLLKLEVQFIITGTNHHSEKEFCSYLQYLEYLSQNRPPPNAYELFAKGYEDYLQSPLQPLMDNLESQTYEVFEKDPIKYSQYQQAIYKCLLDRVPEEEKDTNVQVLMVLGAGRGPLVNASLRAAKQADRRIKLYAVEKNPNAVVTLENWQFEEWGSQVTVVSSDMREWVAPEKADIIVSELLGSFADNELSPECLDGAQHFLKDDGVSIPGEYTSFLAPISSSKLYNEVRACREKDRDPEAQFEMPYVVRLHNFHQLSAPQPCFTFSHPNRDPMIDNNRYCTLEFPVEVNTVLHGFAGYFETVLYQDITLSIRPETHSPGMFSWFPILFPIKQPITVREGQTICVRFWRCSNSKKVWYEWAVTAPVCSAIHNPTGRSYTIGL
T1 sequence (Q9BQA1 with tags, fused parts or gaps partner limits assumed): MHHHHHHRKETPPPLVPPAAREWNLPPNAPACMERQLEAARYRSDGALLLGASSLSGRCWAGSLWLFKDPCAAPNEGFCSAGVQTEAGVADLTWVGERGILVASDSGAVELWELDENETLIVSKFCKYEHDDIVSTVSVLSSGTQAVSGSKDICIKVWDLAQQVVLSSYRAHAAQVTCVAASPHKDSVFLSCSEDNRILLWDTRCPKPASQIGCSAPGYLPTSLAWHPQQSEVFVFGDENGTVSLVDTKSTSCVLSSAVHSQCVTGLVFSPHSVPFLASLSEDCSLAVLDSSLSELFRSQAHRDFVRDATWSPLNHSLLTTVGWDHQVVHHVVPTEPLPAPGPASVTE

Row | Compound | pIC50 [1] | pIC50 [2]
1 | O=C(NCC(O)CN1CCc2ccccc2C1)c1cccc(CN2CCNCC2)c1 (centres unmarked) [Compound B29.] | > 7.00 | –
2 | CN1CCN(Cc2cccc(C(=O)NCC(O)CN3CCc4ccccc4C3)c2)CC1 (centres unmarked) [Compound B30.] | > 7.00 | –
3 | NS(=O)(=O)c1cccc(C(=O)NCC(O)CN2CCc3ccccc3C2)c1 (centres unmarked) [Compound B32.] | 6.00 to 7.00 | –
4 | CN1CCCC1c1cccc(C(=O)NCC(O)CN2CCc3ccccc3C2)c1 (centres unmarked) [Compound B34.] | > 7.00 | –
5 | O=C(NCC(O)CN1CCc2ccccc2C1)c1cccc(N2CCNCC2)c1 (centres unmarked) [Compound B35.] | > 7.00 | –
6 | CN1CCC(c2cccc(C(=O)NCC(O)CN3CCc4ccccc4C3)c2)C1 (centres unmarked) [Compound B38.] | > 7.00 | –
7 | Cc1c(NC2CCOCC2)cccc1C(=O)NCC(O)CN1CCc2ccccc2C1 (centres unmarked) [Compound B40.] | > 7.00 | –
8 | CCN(c1cccc(C(=O)NCC(O)CN2CCc3ccccc3C2)c1C)C1CCOCC1 (centres unmarked) [Compound B41.] | > 7.00 | –
9 | O=C(NCC(O)CN1CCc2ccccc2C1)c1cccc(C2CCCN2)c1 (centres unmarked) [Compound B42.] | 6.00 to 7.00 | –
10 | O=C(NC[C@@H](O)CN1CCc2ccccc2C1)c1cccc(NC2CCOCC2)c1 [Compound B43.] | 6.00 to 7.00 | –
11 | O=C(NC[C@H](O)CN1CCc2ccccc2C1)c1cccc(NC2CCOCC2)c1 [Compound B44.] | > 7.00 | –
12 | O=C(NCC(O)CN1CCc2ccccc2C1)c1cccc(NC2CCOC2)c1 (centres unmarked) [Compound B45.] | > 7.00 | –
13 | O=C(NCC(O)CN1CCc2ccccc2C1)c1cccc(C(=O)N2CCOCC2)c1 (centres unmarked) [Compound B46.] | 5.00 to 6.00 | –
14 | CCN(c1cccc(C(=O)NCC(O)CN2CCc3ccccc3C2)c1)C1CCOCC1 (centres unmarked) [Compound B47.] | 6.00 to 7.00 | –
15 | CN(c1cccc(C(=O)NCC(O)CN2CCc3ccccc3C2)c1)C1CCOCC1 (centres unmarked) [Compound B49.] | 6.00 to 7.00 | –
16 | O=C(NCC(O)CN1CCc2ccccc2C1)c1cccc(NC2COC2)c1 (centres unmarked) [Compound B50.] | 6.00 to 7.00 | –
17 | CC1(C)CC(Nc2cccc(C(=O)NCC(O)CN3CCc4ccccc4C3)c2)CCO1 (centres unmarked) [Compound B53.] | 6.00 to 7.00 | –
18 | O=C(NCC(O)CN1CCc2ccccc2C1)c1cncc(NC2CCOCC2)c1 (centres unmarked) [Compound B54.] | > 7.00 | –
19 | O=C(NCC(O)CN1CCc2ccccc2C1)c1cc(NC2CCOCC2)ccn1 (centres unmarked) [Compound B55.] | > 7.00 | –
20 | O=C(NCC(O)CN1CCc2ccccc2C1)c1ccc(OC2CCOCC2)cc1 (centres unmarked) [Compound B58.] | > 7.00 | –

Other lines, results leading:

Row | pIC50 [1] | pIC50 [2] | Compound
21 | 6.00 to 7.00 | – | CS(=O)(=O)Nc1ccc(C(=O)NCC(O)CN2CCc3ccccc3C2)cc1 (centres unmarked) [Compound B31.]
22 | 5.00 to 6.00 | – | NS(=O)(=O)c1ccccc1C(=O)NCC(O)CN1CCc2ccccc2C1 (centres unmarked) [Compound B33.]
23 | > 7.00 | – | CN1CCN(c2cccc(C(=O)NCC(O)CN3CCc4ccccc4C3)c2)CC1 (centres unmarked) [Compound B36.]
24 | > 7.00 | – | O=C(NCC(O)CN1CCc2ccccc2C1)c1cccc(C2CCNC2)c1 (centres unmarked) [Compound B37.]
25 | 6.00 to 7.00 | – | CNCCOc1cccc(C(=O)NCC(O)CN2CCc3ccccc3C2)c1 (centres unmarked) [Compound B39.]
26 | 6.00 to 7.00 | – | O=C(NCC(O)CN1CCc2ccccc2C1)c1cccc(OC2CCOCC2)c1 (centres unmarked) [Compound B48.]
27 | 6.00 to 7.00 | – | O=C(NCC(O)CN1CCc2ccccc2C1)c1cccc(CN2CCOCC2)c1 (centres unmarked) [Compound B51.]
28 | 6.00 to 7.00 | – | CC(Nc1cccc(C(=O)NCC(O)CN2CCc3ccccc3C2)c1)C1CCOCC1 (centres unmarked) [Compound B52.]
29 | 6.00 to 7.00 | – | COc1cc(NC2CCOCC2)cc(C(=O)NCC(O)CN2CCc3ccccc3C2)c1 (centres unmarked) [Compound B56.]
30 | 6.00 to 7.00 | – | O=C(NCC(O)CN1CCc2ccccc2C1)c1cc(NC2CCOCC2)ccc1F (centres unmarked) [Compound B57.]
31 | – | 6.00 to 7.00 | O=C1Cc2ccccc2N1CC(O)CN1CCc2ccccc2C1 (centres unmarked) [Compound C1]
32 | – | 4.30 to 5.00 | O=c1cccc(CC(O)CN2CCc3ccccc3C2)[nH]1 (centres unmarked) [Compound C2]
